Laboratory results from ChEMBL document CHEMBL1201862, “PubChem BioAssay data set” (2004).
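Values below derive from 48-hour exposures of cells grown in 96-well plates, with endpoints linearly interpolated between the two concentrations bracketing the appropriate inhibition level. At the GI50, growth is halved.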 Calls of active or inactive are those of the source. No stated cut-off is given here; in the data, active = GI50 up to about 1.1 µM and inactive = higher.

How the values were obtained:
Test in all cases: inhibition of tumour cell growth, NCI panel, 48 h
HOP-92 = tested on: HOP-92
DMS-273 = tested on: DMS-273
SNB-19 = tested on: SNB-19
K562 = tested on: K562
LXFL 529 = tested on: LXFL 529
DMS-114 = tested on: DMS-114
MOLT-4 = tested on: MOLT-4
OVCAR-4 = tested on: OVCAR-4
A549 = tested on: A549
SK-MEL-5 = tested on: SK-MEL-5
HOP-62 = tested on: HOP-62
SK-MEL-28 = tested on: SK-MEL-28
SK-OV-3 = tested on: SK-OV-3
M14 = tested on: M14
NCI-H460 = tested on: NCI-H460
CAKI-1 = tested on: CAKI-1
UACC-62 = tested on: UACC-62
U-251 = tested on: U-251
OVCAR-8 = tested on: OVCAR-8
HCT-15 = tested on: HCT-15
SW-620 = tested on: SW-620
DLD-1 = tested on: DLD-1
SNB-78 = tested on: SNB-78
SK-MEL-2 = tested on: SK-MEL-2
KM12 = tested on: KM12
M19-MEL = tested on: M19-MEL
SN12C = tested on: SN12C
UO-31 = tested on: UO-31
HL-60 = tested on: HL-60
HCT-116 = tested on: HCT-116
NCI-H23 = tested on: NCI-H23
A498 = tested on: A498
786-0 = tested on: 786-0
NCI-H226 = tested on: NCI-H226
CCRF-CEM = tested on: CCRF-CEM
SF-295 = tested on: SF-295
HCC 2998 = tested on: HCC 2998
SR = tested on: SR
IGROV-1 = tested on: IGROV-1
SF-539 = tested on: SF-539
ACHN = tested on: ACHN
HOP-18 = tested on: HOP-18
RXF 393 = tested on: RXF 393
UACC-257 = tested on: UACC-257
OVCAR-5 = tested on: OVCAR-5
COLO 205 = tested on: COLO 205
HT-29 = tested on: HT-29
NCI-H522 = tested on: NCI-H522
Malme-3M = tested on: Malme-3M
TK-10 = tested on: TK-10
SNB-75 = tested on: SNB-75
RPMI-8226 = tested on: RPMI-8226
SF-268 = tested on: SF-268
KM-20L2 = tested on: KM-20L2
EKVX = tested on: EKVX
OVCAR-3 = tested on: OVCAR-3
LOX IMVI = tested on: LOX IMVI

COC(=O)C1=C(C)C(=O)C2(CCCCCC2C(=O)OC)C1 (configuration not stated) was tested, and the GI50 (HOP-92) was > 100 µM (inactive), the GI50 (DMS-273) was > 100 µM (inactive) and the GI50 (SNB-19) was > 100 µM (inactive). The GI50 (K562) was > 100 µM (inactive), the GI50 (LXFL 529) was > 100 µM (inactive) and the GI50 (DMS-114) was > 100 µM (inactive). The GI50 (MOLT-4) was > 100 µM (inactive), the GI50 (OVCAR-4) was > 100 µM (inactive) and the GI50 (A549) was > 100 µM (inactive). For the same compound, the GI50 (SK-MEL-5) was > 100 µM (inactive), the GI50 (HOP-62) was 68.7 µM (inactive) and the GI50 (SK-MEL-28) was > 100 µM (inactive). The GI50 (SK-OV-3) was > 100 µM (inactive), the GI50 (M14) was > 100 µM (inactive) and the GI50 (NCI-H460) was > 100 µM (inactive). The GI50 (CAKI-1) was > 100 µM (inactive), the GI50 (UACC-62) was > 100 µM (inactive) and the GI50 (U-251) was > 100 µM (inactive). For the same compound, the GI50 (OVCAR-8) was > 100 µM (inactive), the GI50 (HCT-15) was greater than 100 µM and the GI50 (SW-620) was > 100 µM (inactive). For the same compound, the GI50 (DLD-1) was > 100 µM (inactive), the GI50 (SNB-78) was > 100 µM (inactive) and the GI50 (SK-MEL-2) was > 100 µM (inactive). For the same compound, the GI50 (KM12) was > 100 µM (inactive), the GI50 (M19-MEL) was > 100 µM (inactive) and the GI50 (SN12C) was > 100 µM (inactive). For the same compound, the GI50 (UO-31) was > 100 µM (inactive), the GI50 (HL-60) was > 100 µM (inactive) and the GI50 (HCT-116) was > 100 µM (inactive). The GI50 (NCI-H23) was > 100 µM (inactive), the GI50 (A498) was > 100 µM (inactive) and the GI50 (786-0) was > 100 µM (inactive). The GI50 (NCI-H226) was > 100 µM (inactive), the GI50 (CCRF-CEM) was > 100 µM (inactive) and the GI50 (SF-295) was > 100 µM (inactive). The GI50 (HCC 2998) was > 100 µM (inactive), the GI50 (SR) was > 100 µM (inactive) and the GI50 (IGROV-1) was > 100 µM (inactive). The GI50 (SF-539) was 63.7 µM (inactive), the GI50 (ACHN) was > 100 µM (inactive) and the GI50 (HOP-18) was > 100 µM (inactive). For the same compound, the GI50 (RXF 393) was > 100 µM (inactive), the GI50 (UACC-257) was > 100 µM (inactive) and the GI50 (OVCAR-5) was > 100 µM (inactive). For the same compound, the GI50 (COLO 205) was > 100 µM (inactive), the GI50 (HT-29) was > 100 µM (inactive) and the GI50 (NCI-H522) was 65.2 µM (inactive). For the same compound, the GI50 (Malme-3M) was > 100 µM (inactive), the GI50 (TK-10) was > 100 µM (inactive) and the GI50 (SNB-75) was > 100 µM (inactive). The GI50 (RPMI-8226) was > 100 µM (inactive), the GI50 (SF-268) was > 100 µM (inactive) and the GI50 (KM-20L2) was > 100 µM (inactive). The GI50 (EKVX) was > 100 µM (inactive).

In the case of Cn1cc2ccccc2c1-c1nc(F)nc(Oc2ccc3c(c2)CC[C@@H]2C3CC[C@@]3(C)C2CC[C@@H]3O)n1 (some centres not stated), the GI50 (HOP-92) is reported as 7.78 µM (inactive), the GI50 (DMS-273) is reported as 11.6 µM (inactive) and the GI50 (SNB-19) is reported as 16.6 µM (inactive). For the same compound, the GI50 (K562) was 4.73 µM (inactive), the GI50 (LXFL 529) was 3.71 µM (inactive) and the GI50 (DMS-114) was 3.66 µM (inactive). The GI50 (MOLT-4) was 4.07 µM (inactive), the GI50 (OVCAR-4) was 7.43 µM (inactive) and the GI50 (A549) was 24.8 µM (inactive). The GI50 (SK-MEL-5) was 12.8 µM (inactive), the GI50 (HOP-62) was 9.59 µM (inactive) and the GI50 (SK-MEL-28) was 10.4 µM (inactive). The GI50 (SK-OV-3) was 19.3 µM (inactive), the GI50 (M14) was 8.71 µM (inactive) and the GI50 (NCI-H460) was 18.6 µM (inactive). For the same compound, the GI50 (CAKI-1) was 11.6 µM (inactive), the GI50 (UACC-62) was 17.1 µM (inactive) and the GI50 (U-251) was 6.73 µM (inactive). For the same compound, the GI50 (OVCAR-8) was 7.45 µM (inactive), the GI50 (HCT-15) was 6.18 µM and the GI50 (SW-620) was 7.35 µM (inactive). The GI50 (DLD-1) was 7.16 µM (inactive), the GI50 (SNB-78) was 22.3 µM (inactive) and the GI50 (SK-MEL-2) was 4.2 µM (inactive). For the same compound, the GI50 (KM12) was 11.4 µM (inactive), the GI50 (M19-MEL) was 7.98 µM (inactive) and the GI50 (SN12C) was 7.87 µM (inactive). For the same compound, the GI50 (UO-31) was 24.4 µM (inactive), the GI50 (HL-60) was 3.81 µM (inactive) and the GI50 (HCT-116) was 11.7 µM (inactive). For the same compound, the GI50 (NCI-H23) was 10.3 µM (inactive), the GI50 (A498) was 20.5 µM (inactive) and the GI50 (786-0) was 8.91 µM (inactive). For the same compound, the GI50 (NCI-H226) was 13.5 µM (inactive), the GI50 (CCRF-CEM) was 3.08 µM (inactive) and the GI50 (SF-295) was 22.6 µM (inactive). For the same compound, the GI50 (HCC 2998) was 18.3 µM (inactive), the GI50 (SR) was 3.36 µM (inactive) and the GI50 (IGROV-1) was 6.78 µM (inactive). For the same compound, the GI50 (SF-539) was 12.8 µM (inactive), the GI50 (OVCAR-3) was 9.33 µM (inactive) and the GI50 (ACHN) was 17.7 µM (inactive). For the same compound, the GI50 (HOP-18) was 18.2 µM (inactive), the GI50 (RXF 393) was 3.08 µM (inactive) and the GI50 (UACC-257) was 21.3 µM (inactive). For the same compound, the GI50 (LOX IMVI) was 5.79 µM (inactive), the GI50 (OVCAR-5) was 18.6 µM (inactive) and the GI50 (COLO 205) was 21.8 µM (inactive). The GI50 (HT-29) was 18.7 µM (inactive), the GI50 (NCI-H522) was 3.4 µM (inactive) and the GI50 (Malme-3M) was 15.5 µM (inactive). The GI50 (TK-10) was 13.7 µM (inactive), the GI50 (SNB-75) was 16.7 µM (inactive) and the GI50 (RPMI-8226) was 5.94 µM (inactive). For the same compound, the GI50 (SF-268) was 9.53 µM (inactive), the GI50 (KM-20L2) was 19.1 µM (inactive) and the GI50 (EKVX) was 15.6 µM (inactive).
